According to US20240326041A1, “MICROFLUIDIC INDUCTION OF RESEARCH BASED NEURAL INJURY” (Worcester Polytechnic Institute, priority 2023, published 2024):

Columns and labels:
[1] = biological target: rTRPV4 (Rattus norvegicus, UniProt Q9ERZ8); conditions: commercially available TRPV4 antagonist, vendor description; cited from earlier work
[2] = biological target: hTRPV4 (Homo sapiens, UniProt Q9HBA0); conditions: commercially available TRPV4 antagonist, vendor description; cited from earlier work
[3] = test system: C. elegans; assay: Behavioral state after sonication-induced traumatic injury in microfluidic device; assay type: in vivo; conditions: 2 hour pre-exposure to 1 mM NAC; initial behavioral data
Protocol: To injure animals, a continuous flow of buffer fluid is pumped through a microfluidic device 120 having serpentine microchannels in a bath sonicator-induced cavitation field. Animals are trapped in the flow and directed through the cavitation field. Exposure time is determined by channel length and flow velocity. […] Animals are recovered on an agar plate 130 for further transfer and analysis using widefield or high-resolution microscopy, or encapsulated in hydrogel and assessed over time in presence of various pharmacological agents. […] A batch of test subjects is isolated and introduced via the buffer fluid 114 and suitable coupling 116, as depicted at step 404. The microfluidic device 120 including the post array 140 receives the test subjects 152-N, as shown at step 406. Computer-controlled bath sonication induces titratable cavitation conditions within a microfluidic post-array 140. […] Upon removal, animals may be assessed visually for behavioral state according to the following definitions: • Paralysis: movement phenotype characterized by no obvious gross bodily movement. • Twitch: movement phenotype characterized by shaking or convulsions of the body or a substantial part of the main body of the animal.

[4] = test system: C. elegans; assay: Recovery of neural activity (AWA calcium imaging) after sonication-induced injury; assay type: in vivo; conditions: wild-type C. elegans, NAC-induced recovery
Protocol: FIGS. 8A-8C show results of test substances for treatment of an injury induced by the microfluidic device of FIGS. 1-4. Referring to FIGS. 8A-8C, one approach to therapeutic and/or prophylactic neural treatment includes two chemical agents that are diluted to physiological concentrations and administered in liquid form to the test animals using their food. Drug compositions are applied for a series of several hours to allow the biological function of the composition to manifest. Animals are removed from drug administration and allowed to immobilize under anesthetic for a period of ˜60 minutes in a microfluidic device before being injured. […] The described action of the drug composition is to inhibit the ability of calcium influx channels to operate for a period of time before and during the injury, allowing later recovery of the neuron response when the action of the drug composition ceases.

Sequence of rTRPV4 (Q9ERZ8 whole entry): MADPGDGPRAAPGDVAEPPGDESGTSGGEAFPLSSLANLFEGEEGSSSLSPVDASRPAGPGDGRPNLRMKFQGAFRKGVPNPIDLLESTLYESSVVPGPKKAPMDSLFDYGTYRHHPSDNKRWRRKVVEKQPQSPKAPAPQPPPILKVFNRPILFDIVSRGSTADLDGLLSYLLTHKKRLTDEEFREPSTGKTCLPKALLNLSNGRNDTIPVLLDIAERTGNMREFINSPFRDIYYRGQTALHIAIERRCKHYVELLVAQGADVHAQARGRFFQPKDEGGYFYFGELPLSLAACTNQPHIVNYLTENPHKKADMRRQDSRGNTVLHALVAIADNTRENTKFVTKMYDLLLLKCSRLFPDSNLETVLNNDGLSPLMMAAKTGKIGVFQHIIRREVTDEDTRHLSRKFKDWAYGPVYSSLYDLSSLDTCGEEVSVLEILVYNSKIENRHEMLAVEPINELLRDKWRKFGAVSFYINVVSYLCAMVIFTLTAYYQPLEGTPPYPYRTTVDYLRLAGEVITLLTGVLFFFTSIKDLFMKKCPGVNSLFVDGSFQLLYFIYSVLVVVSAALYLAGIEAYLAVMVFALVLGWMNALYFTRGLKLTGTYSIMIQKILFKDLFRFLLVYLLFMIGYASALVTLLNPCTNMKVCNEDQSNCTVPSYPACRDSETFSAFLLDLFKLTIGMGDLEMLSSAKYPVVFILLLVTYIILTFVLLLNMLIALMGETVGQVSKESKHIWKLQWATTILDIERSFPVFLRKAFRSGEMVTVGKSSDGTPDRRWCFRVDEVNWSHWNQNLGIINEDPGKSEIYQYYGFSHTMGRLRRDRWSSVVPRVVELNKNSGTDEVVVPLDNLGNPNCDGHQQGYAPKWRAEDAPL
Sequence of hTRPV4 (Q9HBA0 whole entry): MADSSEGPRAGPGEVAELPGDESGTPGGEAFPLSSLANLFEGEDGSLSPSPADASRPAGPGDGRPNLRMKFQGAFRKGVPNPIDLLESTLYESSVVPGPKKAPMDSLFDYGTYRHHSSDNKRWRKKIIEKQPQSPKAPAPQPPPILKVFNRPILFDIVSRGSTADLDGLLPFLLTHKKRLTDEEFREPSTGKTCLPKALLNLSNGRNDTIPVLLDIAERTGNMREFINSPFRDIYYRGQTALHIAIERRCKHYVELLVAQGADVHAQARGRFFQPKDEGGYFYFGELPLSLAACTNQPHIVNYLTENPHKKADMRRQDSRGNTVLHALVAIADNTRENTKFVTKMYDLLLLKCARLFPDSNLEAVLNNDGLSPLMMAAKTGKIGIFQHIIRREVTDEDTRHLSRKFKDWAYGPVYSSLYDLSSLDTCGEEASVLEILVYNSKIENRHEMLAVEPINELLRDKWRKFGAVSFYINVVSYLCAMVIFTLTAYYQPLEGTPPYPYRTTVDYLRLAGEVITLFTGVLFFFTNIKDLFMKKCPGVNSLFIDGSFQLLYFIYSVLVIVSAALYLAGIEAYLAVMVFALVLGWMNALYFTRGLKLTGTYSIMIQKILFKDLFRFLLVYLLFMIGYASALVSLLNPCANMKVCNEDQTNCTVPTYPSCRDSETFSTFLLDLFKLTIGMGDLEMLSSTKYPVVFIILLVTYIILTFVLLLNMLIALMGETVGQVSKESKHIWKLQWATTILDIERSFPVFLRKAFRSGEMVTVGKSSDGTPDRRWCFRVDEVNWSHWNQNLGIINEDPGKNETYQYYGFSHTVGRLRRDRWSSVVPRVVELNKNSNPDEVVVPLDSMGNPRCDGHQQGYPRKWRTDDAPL

| SMILES | IC50 [1] | IC50 [2] | behavioral vulnerability after injury [3] | calcium transients on recovery after injury [4] |
| --- | --- | --- | --- | --- |
| O=C(NC1(c2ccccc2)CC1)c1c(CN2CCC(N3CCCCC3)CC2)c(-c2cccc(C(F)(F)F)c2)nc2cc(Br)ccc12 [GSK2193874] | 2 nM | 40 nM |  |  |
| CC(=O)N[C@@H](CS)C(=O)O [NAC, N-acetyl-L-cysteine] |  |  | lessens behavioral vulnerability | produces calcium transients similar to ‘osm’ mutants |
